Measured values published in ChEMBL document CHEMBL1148294, “Synthesis, in vitro evaluation, and antileishmanial activity of water-soluble prodrugs of buparvaquone” (J Med Chem, 2004).
In brackets after ≈: the same amount, converted by molar mass.

Assays:
Leishmania donovani [1] = assay: Effective dose was determined for intracellular amastigotes of Leishmania donovani L82 at 72 hr in infected macrophages at 37C (experiment 1); conditions: read-out: ED50 (the source's name)
Leishmania amazonensis [2] = assay: Effective dose was determined for extracellular promastigotes of Leishmania amazonensis LV81 at 72 h; assay type: functional; conditions: read-out: ED50 (the source's name)
[3] = Ionization constant (pKa) was determined; assay type: physicochemical
Leishmania mexicana [4] = assay: Effective dose was determined for extracellular promastigotes of Leishmania mexicana BEL21 at 72 h; assay type: functional; conditions: read-out: ED50 (the source's name)
[5] = Aqueous Solubility at pH 7.4; assay type: physicochemical
Leishmania donovani [6] = assay: Effective dose was determined for intracellular amastigotes of Leishmania donovani L82 at 72 hr in infected macrophages at 37 degree C (experiment 2); assay type: functional; conditions: read-out: ED50 (the source's name)
Leishmania major [7] = assay: Effective dose was determined for extracellular promastigotes of Leishmania major JISH118 at 72 h; assay type: functional; conditions: read-out: ED50 (the source's name)
Leishmania major [8] = assay: Effective dose was determined for intracellular amastigotes of Leishmania major JISH118 at 72 hr in infected macrophages at 34 degree C (experiment 2); conditions: read-out: ED50 (the source's name)
Leishmania panamensis [9] = assay: Effective dose was determined for extracellular promastigotes of Leishmania panamensis BOYNTON at 72 h; assay type: functional; conditions: read-out: ED50 (the source's name)
Leishmania panamensis [10] = assay: Effective dose was determined for intracellular amastigotes of Leishmania panamensis BOYNTON at 72 hr in infected macrophages at 34C (experiment 1); assay type: functional; conditions: read-out: ED50 (the source's name)
[11] = Half-life for rate of hydrolysis was determined at pH 7.4; assay type: ADME; conditions: buffer
[12] = Distribution Coefficient at pH 7.4; assay type: physicochemical; conditions: octanol/water
alkaline phosphatase = assay: Half-life for rate of hydrolysis was determined in alkaline phosphatase solution (pH 7.4); assay type: ADME
Leishmania mexicana [13] = assay: Effective dose was determined for intracellular amastigotes of Leishmania mexicana LV4 at 72 hr in infected macrophages at 34 degree C (experiment 2); conditions: read-out: ED50 (the source's name)
[14] = Aqueous Solubility at pH 3; assay type: physicochemical
Leishmania aethiopica [15] = assay: Effective dose was determined for extracellular promastigotes of Leishmania aethiopica Khartoum at 72 h; assay type: functional; conditions: read-out: ED50 (the source's name)
Leishmania aethiopica [16] = assay: Effective dose was determined for intracellular amastigotes of Leishmania aethiopica Khartoum at 72 hr in infected macrophages at 34 degree C (experiment 2); conditions: read-out: ED50 (the source's name)
[17] = Aqueous Solubility at pH 5; assay type: physicochemical
Leishmania mexicana [18] = assay: Effective dose was determined for extracellular promastigotes of Leishmania mexicana LV4 at 72 h; assay type: functional; conditions: read-out: ED50 (the source's name)
[19] = Half-life for rate of hydrolysis was determined at pH 3; assay type: ADME; conditions: buffer
Leishmania major [20] = assay: Effective dose was determined for intracellular amastigotes of Leishmania major JISH118 at 72 hr in infected macrophages at 34C (experiment 1); assay type: functional; conditions: read-out: ED50 (the source's name)
[21] = Distribution Coefficient at pH 5; assay type: physicochemical; conditions: octanol/water
Leishmania amazonensis [22] = assay: Effective dose was determined for intracellular amastigotes of Leishmania amazonensis LV81 at 72 hr in infected macrophages at 34C (experiment 1); assay type: functional; conditions: read-out: ED50 (the source's name)
Leishmania donovani [23] = assay: Effective dose was determined for extracellular promastigotes of Leishmania donovani L82 at 72 h; assay type: functional; conditions: read-out: ED50 (the source's name)
[24] = Half-life for rate of hydrolysis was determined in human skin homogenate (pH 7.4); assay type: ADME, tissue-based, Zone of skin
[25] = Distribution Coefficient at pH 3; assay type: physicochemical; conditions: octanol/water
Leishmania aethiopica [26] = assay: Effective dose was determined for intracellular amastigotes of Leishmania aethiopica Khartoum at 72 hr in infected macrophages at 34C (experiment 1); assay type: functional; conditions: read-out: ED50 (the source's name)
Leishmania panamensis [27] = assay: Effective dose was determined for intracellular amastigotes of Leishmania panamensis BOYNTON at 72 h in infected macrophages at 34 degree C (experiment 2); conditions: read-out: ED50 (the source's name)
Leishmania mexicana [28] = assay: Effective dose was determined for intracellular amastigotes of Leishmania mexicana LV4 at 72 hr in infected macrophages at 34C (experiment 1); assay type: functional; conditions: read-out: ED50 (the source's name)
[29] = Half-life for rate of hydrolysis was determined at pH 5; assay type: ADME; conditions: buffer

Row | EC50 (Leishmania donovani [1]) [nM] | EC50 (Leishmania amazonensis [2]) [nM] | pKa [3] | EC50 (Leishmania mexicana [4]) [nM] | solubility [5] [µg/mL] | EC50 (Leishmania donovani [6]) [nM] | EC50 (Leishmania major [7]) [nM] | EC50 (Leishmania major [8]) [nM] | EC50 (Leishmania panamensis [9]) [nM] | EC50 (Leishmania panamensis [10]) [nM] | EC50 (Leishmania mexicana [13]) [nM] | solubility [14] [µg/mL] | EC50 (Leishmania aethiopica [15]) [nM] | EC50 (Leishmania aethiopica [16]) [nM] | solubility [17] [µg/mL] | EC50 (Leishmania mexicana [18]) [nM] | EC50 (Leishmania major [20]) [nM] | EC50 (Leishmania amazonensis [22]) [nM] | EC50 (Leishmania donovani [23]) [nM] | logD [25] | also measured | Compound
1 | 4120 | 24 | 2.68 | 24 | > 3500 | 4310 | 64 | 6270 | 124 | 555 | 4030 | > 3500 | 122 | 7350 | > 3500 | 39 | 1370 | 15700 | 9 | 1.87 | half-life [11]: 17 h; logD ([12]; read-out: logD): 0.47; half-life (alkaline phosphatase): 1.2 min; half-life [19]: 72 h; logD [21]: 1.27; half-life [24]: 8.7 h; EC50 (Leishmania aethiopica [26]): 2330 nM; EC50 (Leishmania panamensis [27]): 2060 nM; EC50 (Leishmania mexicana [28]): 7030 nM; half-life [29]: 50 h | CC(C)(C)C1CCC(CC2=C(OP(=O)(O)O)C(=O)c3ccccc3C2=O)CC1 (stereo not drawn)
2 | 480 | 4 | 5.7 | 2 | 0.03 (≈ 9.19e-05 mM) | 430 | 1 | 1800 | 42 | 370 | 1250 | < 0.03 | 13 | 3640 | < 0.03 | 4 | 434 | 5500 | 6 | 7.02 | EC50 (Leishmania aethiopica [26]): 633 nM; EC50 (Leishmania panamensis [27]): 923 nM; EC50 (Leishmania mexicana [28]): 1440 nM | CC(C)(C)[C@H]1CC[C@H](CC2=C(O)C(=O)c3ccccc3C2=O)CC1 [BUPARVAQUONE]
3 | 1250 | 7 | 2.28 | 5 | > 3500 | 1220 | 12 | 1890 | 120 | < 1120 | 2510 | > 3500 | 57 | 3990 | > 3500 | 10 | 810 | 8810 | 3 | 2.96 | half-life [11]: 0.5 h; logD [12]: 1.16; half-life (alkaline phosphatase): 3.8 min; half-life [19]: 97 h; logD [21]: 1.83; half-life [24]: 0.175 h; EC50 (Leishmania aethiopica [26]): 1660 nM; EC50 (Leishmania panamensis [27]): 1190 nM; EC50 (Leishmania mexicana [28]): 2580 nM; half-life [29]: 8 h | CC(C)(C)C1CCC(CC2=C(OCOP(=O)(O)O)C(=O)c3ccccc3C2=O)CC1 (stereo not drawn)
